From patent US20180008688A1, “METHOD AND COMPOSITIONS FOR ENHANCING IMMUNOTHERAPEUTIC TREATMENT OF A CANCER” (Augusta University Research Institute, Inc., priority 2016, published 2018)
Entries after “also recorded” stand apart in the source; their conditions may differ. Where two headings read alike, the source gives them in different places. Peptide text beside a SMILES is read from it. * marks the point of attachment. Cbz = O=C(OCc1ccccc1)*

Assays:
T cells = assay: Purified T cells activated with anti-CD3/CD28 with nutlin, IL-12, MG-132; type: cell-based, mouse; settings: MG-132 in the presence of both nutlin and IL-12
Source text: Regulation of p53 is complex, and it can be targeted by multiple pathways besides MDM2 (Chao C. C. (2015) Clin. Chim. Acta 438: 139-147). If IL-12 is rescuing T cells from nutlin, one possibility is that IL-12 might activate an alternative pathway of p53 degradation, not dependent on MDM2. To test this, purified T cells were activated (without any antigen-presenting cells or other cells) using anti-CD3/CD28 antibodies. T cells were activated in the presence or absence of nutlin with or without addition of recombinant IL-12.
Finally, to test the hypothesis that IL-12 targeted p53 for proteolytic degradation via an alternated pathway, proteasomal function was inhibited using MG-132. T cells were activated using immobilized CD3/CD28 as above. […] CFSE proliferation tracked inversely with p53 levels. […] While MG-132 affects many intracellular pathways besides p53, these findings support the basic hypothesis that IL-12 bypasses nutlin by targeting p53 for degradation via an alternative route.

[1] = test system: B16F10, EL4, LLC, Tg(Grm1)Epv, MMTV-PyMT; type: in vivo, mouse; settings: every tumor tested
Source text: Conversely, the effect of chemotherapy could be fully replaced by adoptive transfer of exogenous tumor-specific CD8^+ T cells (e.g., pmel-1 cells) activated with vaccine.

B16F10 tumors [2] = type: in vivo; settings: for response of B16 melanoma tumors to chemotherapy alone: single moderate dose
Description: In vivo tumor studies: The B16F10 and E.G7 (EL4-OVA) cell lines were obtained from ATCC. B16-OVA (B16F10 transfected with full-length chicken ovalbumin) clone MO4 was according to Falo et al. ((1995) Nat. Med. 1: 649-653). B16F10 cells expressing EGFP protein (B16-GFP cells) were derived using lentiviral transfection. Tumor implantation was performed as described (Sharma et al., (2007) J. Clin. Invest. 117: 2570-2582), using 1×10^5 cells for B16F10 and 1×10^6 cells for other cell lines (large inocula were used to ensure rapid tumor engraftment and immune suppression). […] Tumor volume was calculated from orthogonal diameters using the formula V=L×W^2×π/6. Mice received approved euthanasia when tumors reached a size of 300 mm^2 (product of orthogonal diameters); death was never used a planned endpoint in any study.
(§1) Tumor implantation was performed as described (Sharma et al., (2007) J. Clin. Invest. 117: 2570-2582). VO-OHpic was given at 10 mg/kg/day i.p., in 10% DMSO/PBS. Cyclophosphamide was given at 150 mg/kg i.p×1 dose; and oxaliplatin at 5 mg/kg i.p×1 dose. Nutlin-3a was administered daily at 10 mg/kg/day i.p. For checkpoint blockade, mice received anti-CTLA-4 plus a cocktail of antibodies against the PD-1 pathway. Vaccines and T cell adoptive transfer studies were performed as described (Sharma et al., (2015) Sci. Advances. 1: e1500845).
VO-OHpic/CTX, nutlin-3a, oxaliplatin and immunotherapy regimens: The vanadate compound VO-OHpic (Mak et al., (2010) J. Chem. Biol. 3: 157-163) inhibits PTEN activity, and this drug was used to destabilize PTEN+Tregs during chemotherapy. Like all of the available PTEN-inhibitors, VO-OHpic can also affect other phosphatases (Spinelli et al., (2015) Adv. Biol. Regul. 57: 102-111).
VO-OHpic was given at 10 mg/kg/day i.p., in 10% DMSO/PBS. Cyclophosphamide was given at 150 mg/kg i.p×1 dose. Oxaliplatin was given at 5 mg/kg i.p×1 dose. […] For checkpoint blockade, mice received anti-CTLA-4 (clone 9D9, BioXcell) plus a cocktail of antibodies against the PD-1 pathway: anti-PD-L2, clone TY25 (Yamazaki et al., (2002) J. Immunol. 169: 5538-5545); anti-PD-1, clone J43 (Agata et al., (1996) Int. Immunol. 8: 765-772); and anti-PD-L1, clone MIH7 (Tsushima et al., (2003) Eur. J. Immunol. 33: 2773-2782). A cocktail was used in order to block the PD-1 pathway as completely as possible and thus minimize any peculiarities of a single blocking antibody.

E.G7 tumors [3] = assay: E.G7/oxaliplatin model in LysMcre/p53-KO hosts with or without nutlin-3a; type: in vivo, mouse; settings: LysMcre/p53 knockout mice
Source text: To test whether the relevant target of nutlin in tumors was specifically the p53 expression in myeloid dendritic cells, the E.G7/oxaliplatin model in LysMcre/p53-KO hosts was used. If mice lacked the relevant p53 in tumor-associated myeloid cells, then LysMcre/p53-KO mice should lose all anti-tumor effect of nutlin. For these studies, mice received congenically-marked OT-I cells to monitor whether T cells were still rescued by IL-12 in tumors.
(§2) Mice with a nuclear-localizing Cre-recombinase knock-in replacing one copy of the Lyz2 gene (Clausen et al., (1999) Transgenic Res. 8: 265-277) (strain 004781, Jax) were crossed as heterozygotes with homozygous p53^flox/flox mice (Marino et al., (2000) Genes Dev. 14: 994-1004) (strain 008462, Jax).
as §1

E.G7 tumors [4] = assay: RIP-mOVA mice with E.G7 tumors treated with oxaliplatin with or without nutlin; type: in vivo; settings: oxaliplatin in the absence of nutlin
Description: A classical model of ICD was first tested in which EL4-OVA lymphoma tumors (clone E.G7) are treated with oxaliplatin chemotherapy (Ghiringhelli et al., (2009) Nat. Med. 15: 1170-1178). E.G7 bears the same model antigen as B16-OVA (described with the RIP-mOVA model, above), so it was possible to test the effects of nutlin plus oxaliplatin in the RIP-mOVA model.

B16F10 tumors [5] = settings: VO-OHpic combined with chemotherapy; Sharma et al. 2015; cited from earlier work
B16F10 tumors [6] = assay: Tumors in knockout hosts treated with VO-OHpic or CTX/VO-OHpic; type: in vivo, mouse; settings: VO-OHpic alone, LysMcre/p53-KO mice
Source text: as §2
In vivo tumor studies: The B16F10 and E.G7 (EL4-OVA) cell lines were obtained from ATCC. B16-OVA (B16F10 transfected with full-length chicken ovalbumin) clone MO4 was according to Falo et al. ((1995) Nat. Med. 1: 649-653). B16F10 cells expressing EGFP protein (B16-GFP cells) were derived using lentiviral transfection. Tumor implantation was performed as described (Sharma et al., (2007) J. Clin. Invest. 117: 2570-2582), using 1×10^5 cells for B16F10 and 1×10^6 cells for other cell lines (large inocula were used to ensure rapid tumor engraftment and immune suppression). Tumors were implanted bilaterally in each mouse as a control for reproducible implantation technique; replicate tumor diameters in a single mouse were typically within ±15%. Tumor volume was calculated from orthogonal diameters using the formula V=L×W^2×π/6. Mice received approved euthanasia when tumors reached a size of 300 mm^2 (product of orthogonal diameters); death was never used a planned endpoint in any study.
Tumor implantation was performed as described (Sharma et al., (2007) J. Clin. Invest. 117: 2570-2582). […]

p53 = assay: Tumors in PTEN^Treg-KO mice treated in vivo with pifithrin; design: species or system mouse
Ly6c+CD11c^NEG cells = assay: Mouse myeloid-cell maturation co-cultures; type: cell-based; settings: exposed to signals from activated T cells
Description: Mouse myeloid-cell maturation cultures: Maturation co-cultures were performed in V-bottom wells (Nunc 249952 V96), using RPMI-1640 medium with 10% fetal bovine serum, but no added cytokines. The preferred source of myeloid cells was TDLN or spleen from mice bearing B16F10 or E.G7 tumors. Rapid isolation of cells was important for viability, so cells were disaggregated by passing once through a 40 μm mesh, then stained briefly on ice and FACS-sorted into ice-cold medium using low-shear fluidics and a large nozzle (Mo-Flo cell sorter). […] myeloid cells were enriched by sorting for Ly6c^+ that were CD11c^NEG B220^NEG (to exclude dendritic cells and B cells). For some experiments, myeloid cells were sub-fractionated using sort dates based on expression of Gr-1 and CD11b.
Sorted Ly6c+ myeloid cells were added to co-cultures as previously described (Sharma et al., (2013) Immunity 38: 998-1012). As an inflammatory stimulus for differentiation, CD8^+ effector cells (5×10^4) were FACS-sorted from spleens of either OT-I or pmel-1 mice (both performed equivalently), and added to co-cultures along with 100 nM cognate peptide (SIINFEKL (SEQ ID NO: 1) or hgp100). […]

CD33+ cells = assay: Human myeloid cell cultures matured with recombinant IFNγ; type: cell-based; settings: cultured in GM-CSF+IL-6, then IFNγ; FIG. 5A
Source text: (Minneapolis, MN) and isolated by centrifugation over Ficoll-Paque PLUS (GE Healthcare), followed by enrichment for myeloid cells using CD33^+ micro-beads (Miltenyi MACs). Alternatively, myelomonocytic cells were enriched by counter-flow elutriation as previously described (Munn et al., (2002) Science 297: 1867-1870; Munn et al., (2004) J. lmmunol. 172: 4100-4110). Immature myeloid cells were then generated by culture for 7 days as previously described (Koehn et al., (2015) Blood 126: 1621-1628; Lechner et al., (2010) J. lmmunol. 185, 2273-2284). Briefly, PBMC were cultured in RPMI-1640 medium with 10% FBS, 1% Pen/Strep, 1% GlutaMax as well as recombinant human GM-CSF (10 ng/ml, R&D Systems)+IL-6 (10 ng/ml, R&D Systems). Culture growth media was refreshed on days 3 and 6; on day 7, cells were washed and returned to culture in medium without GM-CSF/IL-6. Replicate cultures were then treated for 2 days with or without recombinant human IFNγ (30ng/ml, R&D Systems) to induce maturation, and with or without p53 inhibitor pifithrin-α (10 uM, Sigma). After 48 h, cultures were harvested and stained for CD11b, CD33, phospho-p53-Ser15, IRF5 and BDCA3 (CD141).
Human peripheral-blood mononuclear cells were enriched for monocytic cells, then cultured in GM-CSF+IL-6 as described by Koehn et al. ((2015) Blood 126: 1621-1628). […]

[7] = VO-OHpic alone, WT control mice

CC(C)C[C@@H](C=O)NC(=O)[C@H](CC(C)C)NC(=O)[C@H](CC(C)C)NC(=O)OCc1ccccc1 [MG-132] (Cbz-Leu-Leu-Leu-aldehyde)
T cell proliferation (T cells): inhibited proliferation | p53 levels in activated T cells (T cells): progressively increased p53

O=P1(N(CCCl)CCCl)NCCCO1 (stereo not shown) [cyclophosphamide]
interaction of chemotherapy drug with PTEN-inhibitor [1]: synergy | response of B16 melanoma tumors to chemotherapy alone (B16F10 tumors [2]): highly resistant

Nc1ccn([C@@H]2O[C@H](CO)[C@@H](O)C2(F)F)c(=O)n1 [gemcytabine]
interaction of chemotherapy drug with PTEN-inhibitor [1]: synergy | response of B16 melanoma tumors to chemotherapy alone (B16F10 tumors [2]): highly resistant

O=C1[O][Pt]2([NH][C@@H]3CCCC[C@H]3[NH]2)[O]C1=O [oxaliplatin]
response to oxaliplatin chemotherapy (E.G7 tumors [3]): unable to respond; also recorded: lost all response to treatment | anti-tumor effect (E.G7 tumors [4]): transient regression | autoimmune diabetes (E.G7 tumors [4]): rapidly died from progressive autoimmune diabetes

VO-OHpic
destabilization of PTEN+Tregs in tumors (B16F10 tumors [5]): rapid and essentially complete destabilization | anti-tumor effect (B16F10 tumors [2]; PTEN-inhibitor by itself, large established tumors, FIG. 12): no effect | Ly6c+CD103+ dendritic cells (B16F10 tumors [2]; [7]): allowed emergence | tumor growth (B16F10 tumors [2]; [7]): suppressed tumor growth | enhancement of tumor growth by PTEN-inhibitor (B16F10 tumors [2]; systems of the disclosure): does not enhance the growth of tumors | tumor growth (B16F10 tumors [6]): not suppressed

pifithrin
emergence of Ly6c+CD103+ dendritic cell subset (p53): selectively prevented the emergence | immune surveillance of tumors (p53): allowed tumors to escape immune surveillance | differentiation of Ly6c+ MDSCs into Ly6c+CD103+ dendritic cells (Ly6c+CD11c^NEG cells): inhibited

recombinant IFNγ: recombinant human IFNγ (R&D Systems) used to induce maturation
maturation of CD33+ cells (CD33+ cells): rapidly matured into activated cells expressing CD83, CD141, XCR1 and Batf3
